Test results: patent publication US5432192A, “Tricyclic compounds and method for treating allergic diseases” (Hokuriku Seiyaku Co., Ltd., priority 1991, dated 1995)

Columns and labels:
[1] = system: PCA reaction in passively sensitized male Wistar rats; assay: Anti-allergic effect (Inhibitory effect on PCA reaction); assay type: in vivo, rat (male Wistar); settings: Rattus norvegicus, po, 1 h, 1 mg/kg orally, antigen challenge after one hour, read-out: Inhibition rate (%) of PCA reaction
Protocol: 0.1 ml of anti-dinitrophenylated ascaris extract (DNP-As) rat IgE serum was injected intracutaneously to the back of male Wistar rats (6 weeks of age). After 48 hours, a solution of 1% Evans blue in physiological saline containing 1 mg of an antigen (DNP-As) was administered from caudal vein. After 30 minutes, the animals were exsanguinated and dyes in blue spots were extracted with 1N KOH, and then the amounts of the dyes were measured by absorbance at 620 nm. After the passively sensitized rats described above were fasted for 16 to 18 hours, 1 mg/kg of each test compound was administered orally to the rats, and then the rats were challenged with antigen after one hour. The amounts of dyes in the test animals were compared with those of the control to obtain the inhibition rate (%) of PCA reaction.

[2] = target: T1, Histamine dose-response in isolated ileum from male Hartley guinea-pigs (Cavia porcellus, UniProt P31389); assay: Anti-histaminic effect, isolated guinea-pig ileum (KB by Furchgott method); parameters: species or system guinea-pig (male Hartley); settings: dissociation constant KB (M) of antagonist vs histamine; test drug applied 30 minutes before; 28° C.; read-out: -Log KB (anti-histaminic effect) (converted)
T1 construct: The ileum was isolated from male Hartley guinea-pigs; from tissue; host or cells: isolated ileum of male Hartley guinea-pigs
T1 sequence (P31389 whole entry): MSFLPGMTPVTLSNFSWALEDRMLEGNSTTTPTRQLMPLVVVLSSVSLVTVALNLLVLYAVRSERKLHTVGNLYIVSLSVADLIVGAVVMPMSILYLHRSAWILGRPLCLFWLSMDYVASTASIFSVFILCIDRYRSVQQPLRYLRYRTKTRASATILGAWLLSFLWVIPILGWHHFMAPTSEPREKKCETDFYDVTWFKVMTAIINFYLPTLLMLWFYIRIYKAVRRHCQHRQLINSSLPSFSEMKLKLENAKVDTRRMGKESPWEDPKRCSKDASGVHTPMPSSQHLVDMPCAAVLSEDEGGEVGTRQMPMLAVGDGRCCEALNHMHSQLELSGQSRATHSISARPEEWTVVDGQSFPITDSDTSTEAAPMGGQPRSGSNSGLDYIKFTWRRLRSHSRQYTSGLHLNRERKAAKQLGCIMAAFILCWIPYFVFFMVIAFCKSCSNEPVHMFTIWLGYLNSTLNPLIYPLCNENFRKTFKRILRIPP
Protocol: (§1) The ileum was isolated from male Hartley guinea-pigs (5 to 8 weeks of age). The preparation was suspended in a bath containing Locke-Ringer nutritional solution (NaCl: 154 mM, KCl: 5.6 mM, CaCl2 .2H2 O: 2.2 mM, MgCl2.6H2 O: 2.1 mM, NaHCO3 : 5.9 mM, glucose: 2.8 mM) bubbled with 95% O2 +5% CO2 mixed gas at 28° C., and then 0.5 g weight was loaded and tention through isotonic transducer was recorded using a recorder. Histamine was cumulatively applied 3 times at intervals of 40 minutes, and the dose-response curve of the third experiment, for which a test drug was applied 30 minutes before the experiment, was compared with the result of the second experiment as a reference. Dissociation constants KB (M) of antagonists were calculated according to the method of Furchgott. From the results shown in Table 1, it is apparent that the compounds of the present invention have excellent anti-histaminic activities.

[3] = target: T2, Acetylcholine dose-response in isolated ileum from male Hartley guinea-pigs (Cavia porcellus, UniProt H0W1Z3); assay: Anti-acetylcholinergic effect, isolated guinea-pig ileum (KB by Furchgott method); parameters: species or system guinea-pig (male Hartley); settings: dissociation constant KB (M) of antagonist vs acetylcholine; test drug applied 30 minutes before; 28° C.; read-out: -Log KB (anti-acetylcholinergic effect) (converted)
T2 construct: The ileum was isolated from male Hartley guinea-pigs; from tissue; host or cells: isolated ileum of male Hartley guinea-pigs
T2 sequence (H0W1Z3 1-590): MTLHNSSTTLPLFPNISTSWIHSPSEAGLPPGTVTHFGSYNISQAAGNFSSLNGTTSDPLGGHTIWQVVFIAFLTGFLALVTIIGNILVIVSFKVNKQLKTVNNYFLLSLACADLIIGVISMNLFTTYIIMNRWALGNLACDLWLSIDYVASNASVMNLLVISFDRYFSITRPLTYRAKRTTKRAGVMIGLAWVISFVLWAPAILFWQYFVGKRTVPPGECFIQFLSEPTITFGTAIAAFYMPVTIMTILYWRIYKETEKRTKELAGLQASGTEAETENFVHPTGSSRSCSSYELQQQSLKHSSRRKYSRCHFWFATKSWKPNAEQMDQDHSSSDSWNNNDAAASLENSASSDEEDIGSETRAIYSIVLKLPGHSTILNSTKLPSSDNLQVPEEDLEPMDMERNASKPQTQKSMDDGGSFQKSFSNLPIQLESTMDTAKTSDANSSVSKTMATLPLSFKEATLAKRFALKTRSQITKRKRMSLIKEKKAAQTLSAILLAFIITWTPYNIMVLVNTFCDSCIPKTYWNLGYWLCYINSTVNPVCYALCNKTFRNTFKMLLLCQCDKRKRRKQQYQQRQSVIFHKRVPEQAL
Protocol: as §1, with “CaCl2.H2” for “CaCl2 .2H2”, “MgCl2. 6H2” for “MgCl2.6H2”, “Acetylcholine” for “Histamine”, “3,” for “1,”, “almost no anti-acetylcholinergic” for “excellent anti-histaminic”

[4] = known adverse reactions, background art; cited from earlier work

Kb [2] [M] | Kb [3] [M] | SMILES | inhibition at 1 mg/kg [1] [%] | adverse reactions [4]
6.92e-09 | 1.51e-05 | CN(CCC=C1c2ccccc2C=Cc2ccccc21)CCC(=O)O [Example 14, 3-[N-[3-(5H-Dibenzo[a,d]cyclohepten-5-ylidene)propyl]-N-methylamino]propionic Acid] | 72 | –
4.27e-09 | 2.57e-06 | CN(CCC=C1c2ccccc2C=Cc2ccccc21)CCCC(=O)O [Example 15, 4-[N-[3-(5H-Dibenzo[a,d]cyclohepten-5-ylidene)propyl]-N-methylamino]butyricAcid] | – | –
3.16e-08 | 1.26e-05 | CN(CCC=C1c2ccccc2C=Cc2ccccc21)CC(=O)O [Example 16, [N-[3-(5H-Dibenzo[a,d]cyclohepten-5-ylidene)propyl]-N-methylamino]acetic Acid] | – | –
6.17e-09 | 9.12e-07 | CN(CCC=C1c2ccccc2C=Cc2ccccc21)CCCCC(=O)O [Example 17, 5-[N-[3-(5H-Dibenzo[a,d]cyclohepten-5-ylidene)propyl]-N-methylamino]valericAcid] | 72 | –
1.2e-08 | 5.5e-07 | CN(CCC=C1c2ccccc2C=Cc2ccccc21)CCCCCC(=O)O [Example 18, 6-[N-[3-(5H-Dibenzo[a,d]cyclohepten-5-ylidene)propyl]-N-methylamino]hexanoic Acid] | 50 | –
1.55e-08 | 4.9e-05 | CN(CCC=C1c2ccccc2COc2ccccc21)CC(=O)O [Example 19, [N-[3-(Dibenz[b,e]oxepin-11(6H)-ylidene)propyl]-N-methylamino]acetic Acid] | – | –
3.09e-09 | 7.08e-06 | CN(CCC=C1c2ccccc2COc2ccccc21)CCC(=O)O [Example 20, 3-[N-[3-(Dibenz[b,e]oxepin-11(6H)-ylidene)propyl]-N-methylamino]propionic Acid] | 69 | –
3.47e-09 | 7.24e-06 | CN(CCC=C1c2ccccc2COc2ccccc21)CCCC(=O)O [Example 21, 4-[N-[3-(Dibenz[b,e]oxepin-11(6H)-ylidene)propyl]-N-methylamino]butyric Acid] | – | –
4.37e-09 | 1e-05 | CN(CCC=C1c2ccccc2COc2ccccc21)CCCCC(=O)O [Example 22, 5-[N-[3-(Dibenz[b,e]oxepin-11(6H)-ylidene)propyl]-N-methylamino]valeric Acid] | 62 | –
7.76e-09 | 3.16e-06 | CN(CCC=C1c2ccccc2COc2ccccc21)CCCCCC(=O)O [Example 23, 6-[N-[3-(Dibenz[b,e]oxepin-11(6H)-ylidene)propyl]-N-methylamino]hexanoic Acid] | – | –

SMILES | Kb [2] [M] | Kb [3] [M] | inhibition at 1 mg/kg [1] [%] | adverse reactions [4]
CN(C)CCC=C1c2ccccc2C=Cc2ccccc21 [cyclobenzaprine, Cyclobenzaprine, reference compound] | – | 7.59e-09 | 14 | sleepiness, dizziness, fatigue, thirst, nausea, constipation, and dyspepsia
CN(C)CCC=C1c2ccccc2COc2ccccc21 [doxepin, Doxepin, reference compound] | – | 5.89e-08 | 21 | sleepiness, thirst, and constipations
